Data reported in PMC7734281, “Functionalized Oxoindolin Hydrazine Carbothioamide Derivatives as Highly Potent Inhibitors of Nucleoside Triphosphate Diphosphohydrolases” (Frontiers in Pharmacology, 2020).

How the values were obtained:
h-NTPDase3 = target: T1, h-NTPDase3 (Homo sapiens, UniProt O75355); assay: h-NTPDase3 inhibition, malachite green assay; format: biochemical; conditions: for inhibition at 100 µM / Ki / IC50: human NTPDase3; for inhibition at 100 µM: compound 100 µM; for Mode of inhibition of h-NTPDase3: Lineweaver-Burk plot; for IC50: ATP 100 µM substrate, mean ± SEM of three independent experiments
T1 construct: made in house; host or cells: COS-7 cells, transient transfection; crude protein extract after sonication
T1 sequence (O75355 1-529): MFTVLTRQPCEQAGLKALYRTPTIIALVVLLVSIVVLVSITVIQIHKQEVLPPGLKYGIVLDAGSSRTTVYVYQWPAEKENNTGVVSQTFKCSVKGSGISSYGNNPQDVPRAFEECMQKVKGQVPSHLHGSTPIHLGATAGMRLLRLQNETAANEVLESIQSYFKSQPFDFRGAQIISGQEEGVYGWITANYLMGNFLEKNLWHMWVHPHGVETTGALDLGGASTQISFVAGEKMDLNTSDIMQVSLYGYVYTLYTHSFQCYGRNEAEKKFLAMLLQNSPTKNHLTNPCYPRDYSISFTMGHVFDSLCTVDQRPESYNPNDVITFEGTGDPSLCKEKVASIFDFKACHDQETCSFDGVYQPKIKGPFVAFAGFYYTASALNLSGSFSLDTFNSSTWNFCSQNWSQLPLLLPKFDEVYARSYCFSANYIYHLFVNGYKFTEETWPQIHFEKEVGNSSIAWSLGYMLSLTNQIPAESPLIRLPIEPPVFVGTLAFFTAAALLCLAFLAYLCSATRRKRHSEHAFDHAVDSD
Description: (§1) COS-7 cells were transfected with plasmids expressing human or mouse NTPDases1, -2, -3, and -8 as previously described ([Levesque et al., 2007]; [Lecka et al., 2014]) Briefly, the confluent cells were transferred to Dulbecco’s Modified Eagle’s Medium containing no fetal bovine serum. Then, these cells were incubated with plasmid DNA (6 µg) and Lipofectamine reagent (24 µl) at 37°C. After 5 h, transfection was terminated with the addition of an equal volume of DMEM/F-12 (supplemented with 20% FBS) and cells were collected by harvesting after 40–72 h.
(§2) To prepare protein extracts, transfected COS-7 cells were washed three times with tris-saline buffer while temperature was maintained at 4°C. Then cells were scraped and resuspended in harvesting buffer containing 95 mM NaCl, 45 mM tris and 0.1 mM phenylmethylsulfonyl fluoride (pH 7.5). Cells were again washed twice by centrifugation for 5 min at 300 × g at 4°C and then resuspended in harvesting buffer (supplemented with 10 μg ml aprotinin). Following sonication, cellular debris was isolated by 10 min centrifugation at 300 g at 4°C. Subsequently, supernatant was removed very carefully and protein concentration was determined by using Bradford microplate assay while using the bovine serum albumin as a standard ([Bradford, 1976]).
(§3) The inhibitory effects of synthesized compounds on h-NTPDase1, -2, -3, and -8 were determined as described previously, although with slight modifications ([Martín-Satué et al., 2009]). Assay was conducted in a reaction medium containing 50 mM tris-HCl and 5 mM CaCl2 (pH 7.4). All the test compounds were dissolved in dimethyl sulfoxide (DMSO, 10%) and initially screened at a concentration of 100 µM. A reaction mixture containing 55 µl of assay buffer, 10 µl of test compound solution and 10 µl of h-NTPDase1 (58 ng/well) or h-NTPDase2 (79 ng/well) or h-NTPDase3 (163 ng/well) or h-NTPDase8 (66 ng/well) was incubated at 37°C for 10 min. Following the incubation, a 10 µl solution of adenosine triphosphate (ATP, 100 µm) was added as substrate and reaction mixture was again incubated for 15 min at 37°C. The reaction was stopped by adding malachite green reagent (15 µl) and placed at room temperature for 4 to 6 min. Finally, absorbance was measured at 630 nm by using Omega FLUOstar microplate reader (BMG Labtech, Ortenberg, Germany) and % inhibitions were calculated. For compounds showing more than 50% inhibition of any isozyme, dose response curves were generated and their IC50 values were determined. Three separate enzyme inhibition assays were carried out in triplicate and dose-response curve were generated by using PRISM 5.0 (GraphPad, San Diego, United States).

h-NTPDase2 = target: T2, h-NTPDase2 (Homo sapiens, UniProt Q9Y5L3); assay: h-NTPDase2 inhibition, malachite green assay; format: biochemical; conditions: for inhibition at 100 µM: compound 100 µM; for IC50: ATP 100 µM substrate, mean ± SEM of three independent experiments
T2 construct: made in house; host or cells: COS-7 cells, transient transfection; crude protein extract after sonication
T2 sequence (Q9Y5L3 1-495): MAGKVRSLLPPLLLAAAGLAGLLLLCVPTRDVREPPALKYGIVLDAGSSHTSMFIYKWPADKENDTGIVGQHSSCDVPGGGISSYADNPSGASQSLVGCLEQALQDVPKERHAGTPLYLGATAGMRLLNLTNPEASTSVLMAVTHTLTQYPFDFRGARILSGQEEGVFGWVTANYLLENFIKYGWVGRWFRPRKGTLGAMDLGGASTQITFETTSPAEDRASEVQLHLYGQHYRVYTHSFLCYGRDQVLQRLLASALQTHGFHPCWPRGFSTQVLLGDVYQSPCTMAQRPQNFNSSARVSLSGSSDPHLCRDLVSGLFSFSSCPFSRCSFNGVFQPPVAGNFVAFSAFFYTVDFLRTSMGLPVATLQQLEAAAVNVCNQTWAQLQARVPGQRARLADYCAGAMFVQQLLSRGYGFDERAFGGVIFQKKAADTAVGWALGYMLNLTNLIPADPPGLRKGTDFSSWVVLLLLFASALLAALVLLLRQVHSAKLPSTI
Description: as §1, §2, §3

inhibition at 100 µM (h-NTPDase3) | inhibition at 100 µM (h-NTPDase2) | melting point | Structure (SMILES) | further results
20% | 24% |  | O=C1Nc2ccccc2/C1=N/NC(=S)Nc1ccccc1 [8a, (Z)-2-(2-oxoindolin-3-ylidene)-N-phenylhydrazine-1-carbothioamide] | 
34% |  | 245 to 248 °C | COc1ccc(OC)c(NC(=S)N/N=C2\C(=O)Nc3ccccc32)c1 [8j, (Z)-N-(2,5-dimethoxyphenyl)-2-(2-oxoindolin-3-ylidene)hydrazine-1-carbothioamide] | Ki (h-NTPDase2): 0.04 µM; IC50 (h-NTPDase2): 0.11 ± 0.08 µM
46% | 48% | 255 to 256 °C | O=C1Nc2ccccc2/C1=N/NC(=S)Nc1ccc(F)cc1 [8d, (Z)-N-(4-fluorophenyl)-2-(2-oxoindolin-3-ylidene)hydrazine-1-carbothioamide] | 
 | < 50% | 220 to 224 °C | COc1cccc(NC(=S)N/N=C2\C(=O)Nc3ccccc32)c1 [8e, (Z)-N-(3-methoxyphenyl)-2-(2-oxoindolin-3-ylidene)hydrazine-1-carbothioamide] | 
26% | 17% |  | Cc1ccc(NC(=S)N/N=C2\C(=O)Nc3ccccc32)cc1 [8h, (Z)-2-(2-oxoindolin-3-ylidene)-N-(p-tolyl)hydrazine-1-carbothioamide] | 
17% | 29% | 235 to 236 °C | O=C1Nc2ccccc2/C1=N/NC(=S)Nc1cccc(Cl)c1 [8g, (Z)-N-(3-chlorophenyl)-2-(2-oxoindolin-3-ylidene)hydrazine-1-carbothioamide] | 

More lines, now with the values behind:

Structure (SMILES) | inhibition at 100 µM (h-NTPDase3) | inhibition at 100 µM (h-NTPDase2) | melting point | further results
O=C1Nc2ccccc2/C1=N/NC(=S)Nc1c(F)cccc1F [8l, (Z)-N-(2,6-difluorophenyl)-2-(2-oxoindolin-3-ylidene)hydrazine-1-carbothioamide] |  | < 50% | 243 to 244 °C | 
O=C1Nc2ccccc2/C1=N/NC(=S)Nc1ccc([N+](=O)[O-])cc1 [8b, (Z)-N-(4-nitrophenyl)-2-(2-oxoindolin-3-ylidene)hydrazine-1-carbothioamide] |  |  | 271 to 272 °C | 
O=C1Nc2ccccc2/C1=N/NC(=S)Nc1ccc(Cl)cc1 [8c, (Z)-N-(4-chlorophenyl)-2-(2-oxoindolin-3-ylidene)hydrazine-1-carbothioamide] |  | 46% | 240 to 244 °C | Times more active than standard inhibitor suramin (comparison of IC50s), h-NTPDase3 (h-NTPDase3; IC50 ratio versus suramin): 22 times; Mode of inhibition of h-NTPDase3 (h-NTPDase3): competitive; Ki (h-NTPDase3): 0.08 µM; IC50 (h-NTPDase3): 0.19 ± 0.02 µM
O=C1Nc2ccccc2/C1=N/NC(=S)NCc1ccccc1 [8f, (Z)-N-benzyl-2-(2-oxoindolin-3-ylidene)hydrazine-1-carbothioamide] |  | < 50% | 206 to 208 °C | 
Cc1ccc(C(=O)Nc2ccc(S(=O)(=O)O)c3cc(S(=O)(=O)O)cc(S(=O)(=O)O)c23)cc1NC(=O)c1cccc(NC(=O)Nc2cccc(C(=O)Nc3cc(C(=O)Nc4ccc(S(=O)(=O)O)c5cc(S(=O)(=O)O)cc(S(=O)(=O)O)c45)ccc3C)c2)c1 [Suramin, reference compound] |  |  |  | Ki (h-NTPDase3): 1.85 µM; IC50 (h-NTPDase3): 4.31 ± 0.41 µM; Ki (h-NTPDase2): 9.92 µM; IC50 (h-NTPDase2): 24.1 ± 3.01 µM
COc1ccc(NC(=S)NNC2=c3ccccc3=NC2=O)cc1 [8k, (Z)-N-(4-methoxyphenyl)-2-(2-oxoindolin-3-ylidene)hydrazine-1-carbothioamide] | 19% |  |  | Ki (h-NTPDase2): 0.07 µM; IC50 (h-NTPDase2): 0.16 ± 0.01 µM
CCNC(=S)N/N=C1\C(=O)Nc2ccccc21 [8m, (Z)-N-ethyl-2-(2-oxoindolin-3-ylidene)hydrazine-1-carbothioamide] |  | 42% | 190 to 194 °C | Mode of inhibition of h-NTPDase3 (h-NTPDase3): non-competitive; Ki (h-NTPDase3): 0.16 µM; IC50 (h-NTPDase3): 0.38 ± 0.03 µM
Cc1cccc(C)c1NC(=S)N/N=C1\C(=O)Nc2ccccc21 [8i, (Z)-N-(2,6-dimethylphenyl)-2-(2-oxoindolin-3-ylidene)hydrazine-1-carbothioamide] | 25% |  | 250 to 252 °C | Ki (h-NTPDase2): 0.17 µM; IC50 (h-NTPDase2): 0.41 ± 0.03 µM
